Results taken from the supplement of paper PMC10307832.

Key:
Assay in all cases: relative viability (nuclei count vs DMSO), 5 days (fraction); higher = more cells survive
NCI-H1355 = test system: NCI-H1355
Summary of the method: (§1)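 Dosing by pin tool came one day after lung cancer cell lines were seeded in 1536-well plates, using either one drug or a fixed anchor-drug dose plus five library-drug doses (not always all listed) in √10 steps. After 5 days, nuclei were counted on 4× images. Relative viability is treated-well nuclei count divided by vehicle-well nuclei count, and values are medians of duplicate plates.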

COR-L23 = test system: COR-L23
Summary of the method: as §1

NCI-H2023 = test system: NCI-H2023
Summary of the method: as §1

PC-14 = test system: PC-14
Summary of the method: as §1

LC-2-ad = test system: LC-2-ad
Summary of the method: as §1

HCC-44 = test system: HCC-44
Summary of the method: as §1

NCI-H838 = test system: NCI-H838
Summary of the method: as §1

ABC-1 = test system: ABC-1
Summary of the method: as §1

HARA = test system: HARA
Summary of the method: as §1

NCI-H2085 = test system: NCI-H2085
Summary of the method: as §1

HOP-62 = test system: HOP-62
Summary of the method: as §1

HCC-15 = test system: HCC-15
Summary of the method: as §1

UMC-11 = test system: UMC-11
Summary of the method: as §1

NCI-H2126 = test system: NCI-H2126
Summary of the method: as §1

SW 1573 = test system: SW 1573
Summary of the method: as §1

NCI-H1651 = test system: NCI-H1651
Summary of the method: as §1

EPLC-272H = test system: EPLC-272H
Summary of the method: as §1

NCI-H2347 = test system: NCI-H2347
Summary of the method: as §1

NCI-H1915 = test system: NCI-H1915
Summary of the method: as §1

LU99A = test system: LU99A
Summary of the method: as §1

NCI-H650 = test system: NCI-H650
Summary of the method: as §1

NCI-H1993 = test system: NCI-H1993
Summary of the method: as §1

NCI-H358 = test system: NCI-H358
Summary of the method: as §1

## O=c1cc(N2CCOCC2)oc2c(-c3cccc4c3sc3ccccc34)cccc12 + Nc1ncn([C@H]2C[C@H](O)[C@@H](CO)O2)c(=O)n1 [Decitabine] (partner 2 µM)
NCI-H1355; first compound 0.01 µM
  relative viability: 0.377
NCI-H1355; first compound 0.03162 µM
  relative viability: 0.339
NCI-H1355; first compound 0.1 µM
  relative viability: 0.409
NCI-H1355; first compound 0.3162 µM
  relative viability: 0.351
NCI-H1355; first compound 1 µM
  relative viability: 0.352
COR-L23; first compound 0.01 µM
  relative viability: 0.515
COR-L23; first compound 0.03162 µM
  relative viability: 0.434
COR-L23; first compound 0.1 µM
  relative viability: 0.475
COR-L23; first compound 0.3162 µM
  relative viability: 0.467
COR-L23; first compound 1 µM
  relative viability: 0.504
NCI-H2023; first compound 0.01 µM
  relative viability: 0.252
NCI-H2023; first compound 0.03162 µM
  relative viability: 0.224
NCI-H2023; first compound 0.1 µM
  relative viability: 0.248
NCI-H2023; first compound 0.3162 µM
  relative viability: 0.251
NCI-H2023; first compound 1 µM
  relative viability: 0.232
PC-14; first compound 0.01 µM
  relative viability: 0.274
PC-14; first compound 0.03162 µM
  relative viability: 0.272
PC-14; first compound 0.1 µM
  relative viability: 0.191
PC-14; first compound 0.3162 µM
  relative viability: 0.267
PC-14; first compound 1 µM
  relative viability: 0.267
LC-2-ad; first compound 0.01 µM
  relative viability: 0.736
LC-2-ad; first compound 0.03162 µM
  relative viability: 0.801
LC-2-ad; first compound 0.1 µM
  relative viability: 0.79
LC-2-ad; first compound 0.3162 µM
  relative viability: 0.822
LC-2-ad; first compound 1 µM
  relative viability: 0.893
HCC-44; first compound 0.01 µM
  relative viability: 0.962
HCC-44; first compound 0.03162 µM
  relative viability: 0.993
HCC-44; first compound 0.1 µM
  relative viability: 0.97
HCC-44; first compound 0.3162 µM
  relative viability: 0.96
HCC-44; first compound 1 µM
  relative viability: 0.986
NCI-H838; first compound 0.01 µM
  relative viability: 0.481
NCI-H838; first compound 0.03162 µM
  relative viability: 0.49
NCI-H838; first compound 0.1 µM
  relative viability: 0.479
NCI-H838; first compound 0.3162 µM
  relative viability: 0.482
NCI-H838; first compound 1 µM
  relative viability: 0.478
ABC-1; first compound 0.01 µM
  relative viability: 1.01
ABC-1; first compound 0.03162 µM
  relative viability: 1.15
ABC-1; first compound 0.1 µM
  relative viability: 1.31
ABC-1; first compound 0.3162 µM
  relative viability: 0.959
ABC-1; first compound 1 µM
  relative viability: 1.09
HARA; first compound 0.01 µM
  relative viability: 0.536
HARA; first compound 0.03162 µM
  relative viability: 0.466
HARA; first compound 0.1 µM
  relative viability: 0.617
HARA; first compound 0.3162 µM
  relative viability: 0.481
HARA; first compound 1 µM
  relative viability: 0.476
NCI-H2085; first compound 0.01 µM
  relative viability: 0.591
NCI-H2085; first compound 0.03162 µM
  relative viability: 0.519
NCI-H2085; first compound 0.1 µM
  relative viability: 0.526
NCI-H2085; first compound 0.3162 µM
  relative viability: 0.614
NCI-H2085; first compound 1 µM
  relative viability: 0.502
HOP-62; first compound 0.01 µM
  relative viability: 0.228
HOP-62; first compound 0.03162 µM
  relative viability: 0.227
HOP-62; first compound 0.1 µM
  relative viability: 0.236
HOP-62; first compound 0.3162 µM
  relative viability: 0.249
HOP-62; first compound 1 µM
  relative viability: 0.196
HCC-15; first compound 0.01 µM
  relative viability: 0.632
HCC-15; first compound 0.03162 µM
  relative viability: 0.639
HCC-15; first compound 0.1 µM
  relative viability: 0.774
HCC-15; first compound 0.3162 µM
  relative viability: 0.59
HCC-15; first compound 1 µM
  relative viability: 0.724
UMC-11; first compound 0.01 µM
  relative viability: 0.587
UMC-11; first compound 0.03162 µM
  relative viability: 0.562
UMC-11; first compound 0.1 µM
  relative viability: 0.492
UMC-11; first compound 0.3162 µM
  relative viability: 0.556
UMC-11; first compound 1 µM
  relative viability: 0.687
NCI-H2126; first compound 0.01 µM
  relative viability: 0.558
NCI-H2126; first compound 0.03162 µM
  relative viability: 0.609
NCI-H2126; first compound 0.1 µM
  relative viability: 0.601
NCI-H2126; first compound 0.3162 µM
  relative viability: 0.559
NCI-H2126; first compound 1 µM
  relative viability: 0.569
SW 1573; first compound 0.01 µM
  relative viability: 0.625
SW 1573; first compound 0.03162 µM
  relative viability: 0.577
SW 1573; first compound 0.1 µM
  relative viability: 0.529
SW 1573; first compound 0.3162 µM
  relative viability: 0.409
SW 1573; first compound 1 µM
  relative viability: 0.665
NCI-H1651; first compound 0.01 µM
  relative viability: 0.563
NCI-H1651; first compound 0.03162 µM
  relative viability: 0.615
NCI-H1651; first compound 0.1 µM
  relative viability: 0.593
NCI-H1651; first compound 0.3162 µM
  relative viability: 0.642
NCI-H1651; first compound 1 µM
  relative viability: 0.61
EPLC-272H; first compound 0.01 µM
  relative viability: 0.392
EPLC-272H; first compound 0.03162 µM
  relative viability: 0.398
EPLC-272H; first compound 0.1 µM
  relative viability: 0.329
EPLC-272H; first compound 0.3162 µM
  relative viability: 0.359
EPLC-272H; first compound 1 µM
  relative viability: 0.376
NCI-H2347; first compound 0.01 µM
  relative viability: 0.606
NCI-H2347; first compound 0.03162 µM
  relative viability: 0.632
NCI-H2347; first compound 0.1 µM
  relative viability: 0.609
NCI-H2347; first compound 0.3162 µM
  relative viability: 0.641
NCI-H2347; first compound 1 µM
  relative viability: 0.603
NCI-H1915; first compound 0.01 µM
  relative viability: 0.28
NCI-H1915; first compound 0.03162 µM
  relative viability: 0.253
NCI-H1915; first compound 0.1 µM
  relative viability: 0.256
NCI-H1915; first compound 0.3162 µM
  relative viability: 0.291
NCI-H1915; first compound 1 µM
  relative viability: 0.266
LU99A; first compound 0.01 µM
  relative viability: 0.906
LU99A; first compound 0.03162 µM
  relative viability: 1.01
LU99A; first compound 0.1 µM
  relative viability: 0.993
LU99A; first compound 0.3162 µM
  relative viability: 0.827
LU99A; first compound 1 µM
  relative viability: 0.978
NCI-H650; first compound 0.01 µM
  relative viability: 0.319
NCI-H650; first compound 0.03162 µM
  relative viability: 0.384
NCI-H650; first compound 0.3162 µM
  relative viability: 0.338
NCI-H650; first compound 1 µM
  relative viability: 0.303
NCI-H1993; first compound 0.01 µM
  relative viability: 0.731
NCI-H1993; first compound 0.03162 µM
  relative viability: 0.639
NCI-H1993; first compound 0.1 µM
  relative viability: 0.569
NCI-H1993; first compound 0.3162 µM
  relative viability: 0.575
NCI-H1993; first compound 1 µM
  relative viability: 0.585
NCI-H358; first compound 0.01 µM
  relative viability: 0.222
NCI-H358; first compound 0.03162 µM
  relative viability: 0.218
NCI-H358; first compound 0.1 µM
  relative viability: 0.218
NCI-H358; first compound 0.3162 µM
  relative viability: 0.21
NCI-H358; first compound 1 µM
  relative viability: 0.193
